Measurements published in paper PMC2714694, “Conservation of the glucan phosphatase laforin is linked to rates of molecular evolution and the glucan metabolism of the organism” (BMC Evolutionary Biology, 2009).

Target: T1, Nv-laforin (Nematostella vectensis, UniProt A7SVW9)
T1 construct: gene NEMVEDRAFT_v1g194103; complete open reading frame from Nematostella DNA; GST-Nv-laforin-HIS6 from E. coli BL21 (DE3) CodonPlus RIL; CBM20 plus DSP
T1 sequence (A7SVW9 1-324): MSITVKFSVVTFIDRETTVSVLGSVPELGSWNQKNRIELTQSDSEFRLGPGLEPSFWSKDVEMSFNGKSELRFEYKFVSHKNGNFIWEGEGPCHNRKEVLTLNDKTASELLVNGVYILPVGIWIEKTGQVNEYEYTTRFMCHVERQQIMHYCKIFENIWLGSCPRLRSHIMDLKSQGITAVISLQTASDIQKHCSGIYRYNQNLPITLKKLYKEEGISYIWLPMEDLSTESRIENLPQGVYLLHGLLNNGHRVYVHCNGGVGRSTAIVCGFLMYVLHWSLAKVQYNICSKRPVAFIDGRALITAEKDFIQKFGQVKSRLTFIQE
Assay: p-NPP hydrolysis, absorbance […] nm
Assay type: biochemical
Conditions: 50 mM pNPP, pH 5-8 tested (optimum pH 7.5), 37 °C, 2 mM dithiothreitol, 0.1 M sodium acetate, 0.05 M bis-Tris, 0.05 M Tris-HCl

## O=[N+]([O-])c1ccc(OP(=O)(O)O)cc1 [para-nitrophenylphosphate]
  p-NPP hydrolysis, absorbance 410 nm: Both Bf- and Nv-laforin also utilized p-NPP as an artificial substrate
